Source: US6352958B1, “Cycloimido-substituted benzofused heterocyclic herbicides” (FMC Corporation, priority 1997, dated 2002)

Experiments:
Format in all cases: in vivo
[1] = tested on: velvetleaf (Abutilon theophrasti); assay: Preemergence herbicidal activity, velvetleaf; details: Rate of Application 0.3 Kg/Ha, examined after 12-17 days
[2] = tested on: field corn (Zea mays var. Pioneer 3732); assay: Postemergence herbicidal activity, corn; details: rate of application 0.3 Kg/Ha, rated after 12-17 days
[3] = tested on: wheat (Triticum aestivum var. Lew); assay: Preemergence herbicidal activity, wheat; details: Rate of Application 0.3 Kg/Ha, examined after 12-17 days
[4] = tested on: Johnsongrass (Sorghum halepense); assay: Postemergence herbicidal activity, johnsongrass; details: rate of application 0.3 Kg/Ha, rated after 12-17 days
[5] = tested on: green foxtail (Setaria viridis); assay: Preemergence herbicidal activity, green foxtail; details: Rate of Application 0.3 Kg/Ha, examined after 12-17 days
[6] = tested on: wheat (Triticum aestivum var. Lew); assay: Postemergence herbicidal activity, wheat; details: rate of application 0.3 Kg/Ha, rated after 12-17 days
[7] = tested on: field corn (Zea mays var. Pioneer 3732); assay: Preemergence herbicidal activity, corn; details: Rate of Application 0.3 Kg/Ha, examined after 12-17 days
[8] = tested on: soybean (Glycine max var. Winchester); assay: Postemergence herbicidal activity, soybean; details: rate of application 0.3 Kg/Ha, rated after 12-17 days
[9] = tested on: blackgrass (Aloepecurus myosuroides); assay: Postemergence herbicidal activity, blackgrass; details: rate of application 0.3 Kg/Ha, rated after 12-17 days
[10] = tested on: blackgrass (Aloepecurus myosuroides); assay: Preemergence herbicidal activity, blackgrass; details: Rate of Application 0.3 Kg/Ha, examined after 12-17 days
[11] = tested on: Johnsongrass (Sorghum halepense); assay: Preemergence herbicidal activity, johnsongrass; details: Rate of Application 0.3 Kg/Ha, examined after 12-17 days
[12] = tested on: morningglory (Ipomea lacunosa or Ipomea hederacea); assay: Preemergence herbicidal activity, morningglory; details: Rate of Application 0.3 Kg/Ha, examined after 12-17 days
[13] = tested on: morningglory (Ipomea lacunosa or Ipomea hederacea); assay: Postemergence herbicidal activity, morningglory; details: rate of application 0.3 Kg/Ha, rated after 12-17 days
[14] = tested on: common cocklebur (Xanthium strumarium L.); assay: Postemergence herbicidal activity, cocklebur; details: rate of application 0.3 Kg/Ha, rated after 12-17 days
[15] = tested on: soybean (Glycine max var. Winchester); assay: Preemergence herbicidal activity, soybean; details: Rate of Application 0.3 Kg/Ha, examined after 12-17 days
[16] = tested on: velvetleaf (Abutilon theophrasti); assay: Postemergence herbicidal activity, velvetleaf; details: rate of application 0.3 Kg/Ha, rated after 12-17 days
[17] = tested on: green foxtail (Setaria viridis); assay: Postemergence herbicidal activity, green foxtail; details: rate of application 0.3 Kg/Ha, rated after 12-17 days
[18] = tested on: common chickweed (Stellaria media); assay: Preemergence herbicidal activity, chickweed; details: Rate of Application 0.3 Kg/Ha, examined after 12-17 days
[19] = tested on: common cocklebur (Xanthium strumarium L.); assay: Preemergence herbicidal activity, cocklebur; details: Rate of Application 0.3 Kg/Ha, examined after 12-17 days

SMILES	PREEMERGENCE HERBICIDAL ACTIVITY (% CONTROL) ABUTH [1] [%]	Postemergence herbicidal activity (% control) CRN [2] [%]	PREEMERGENCE HERBICIDAL ACTIVITY (% CONTROL) WHT [3] [%]	Postemergence herbicidal activity (% control) SORHA [4] [%]	PREEMERGENCE HERBICIDAL ACTIVITY (% CONTROL) SETVI [5] [%]	Postemergence herbicidal activity (% control) WHT [6] [%]	PREEMERGENCE HERBICIDAL ACTIVITY (% CONTROL) CRN [7] [%]	Postemergence herbicidal activity (% control) SOY [8] [%]	Postemergence herbicidal activity (% control) ALOMY [9] [%]	PREEMERGENCE HERBICIDAL ACTIVITY (% CONTROL) ALOMY [10] [%]	PREEMERGENCE HERBICIDAL ACTIVITY (% CONTROL) SORHA [11] [%]	PREEMERGENCE HERBICIDAL ACTIVITY (% CONTROL) IPOSS [12] [%]	Postemergence herbicidal activity (% control) IPOSS [13] [%]	Postemergence herbicidal activity (% control) XANPE [14] [%]	PREEMERGENCE HERBICIDAL ACTIVITY (% CONTROL) SOY [15] [%]	Postemergence herbicidal activity (% control) ABUTH [16] [%]	Postemergence herbicidal activity (% control) SETVI [17] [%]	PREEMERGENCE HERBICIDAL ACTIVITY (% CONTROL) STEME [18] [%]	PREEMERGENCE HERBICIDAL ACTIVITY (% CONTROL) XANPE [19] [%]
Cc1nc2c(-n3c(=O)cc(C(F)(F)F)n(C)c3=O)c(F)cc(Cl)c2[nH]1 [Compound 363]	100	100	100	100	100	100	100	100	100	100	100	100	100	100	100	100	100	100	100
Cn1c(C(F)(F)F)cc(=O)n(-c2c(F)cc(Cl)c3nc(Cc4ccccc4)[nH]c23)c1=O [Compound 376]	100	95	60	100	100	50	80	90	90	100	70	100	100	100	50	100	100	100	100
Cn1c(C(F)(F)F)cc(=O)n(-c2c(F)cc(Cl)c3nc(COc4ccccc4)[nH]c23)c1=O [Compound 378]	100	90	70	100	100	40	90	90	80	80	95	100	90	100	90	100	100	100	100
